Laboratory results reported in patent publication US20230127965A1, “METHODS FOR TREATING, AMELIORATING, OR PREVENTING VIRAL INFECTIONS” (Thomas Jefferson University, priority 2020, published 2023).
“Also recorded” adds a separate entry of the source.

How the values were obtained:
Format in all cases: cell-based
[1] = system: SARS-CoV-2
[2] = system: androgen receptor (AR)
[3] = system: Dengue virus; test: Dengue virus infection of U2OS cells, qPCR; conditions: 10 μM, treated 2 hours before infection, MOI of 1, ~16-18 hours (FIG. 6)
[4] = system: Zika virus; test: Zika virus infection of U2OS cells, qPCR; conditions: 10 μM, treated 2 hours before infection, MOI of 1, ~16-18 hours (FIG. 7)
[5] = system: Powassan virus

| Structure (SMILES) | blocked SARS-CoV-2 infection (fold) [1] | effect on SARS-CoV-2 infection (in words) [1] | DHT induced AR transcriptional activity [2] | Dengue virus infection (fold change, qPCR) [3] | Zika virus infection (fold change, qPCR) [4] | Powassan virus infection (fold change, qPCR) [5] |
| --- | --- | --- | --- | --- | --- | --- |
| N=C(Nc1ccc(I)cc1)NC1C2CC3CC(C2)CC1C3 (stereo not shown) [IPAG] | 1,000 fold | inhibit SARS-CoV-2 infection | inhibition |  |  |  |
| COc1ccc(CCN2CCN(CCCc3ccccc3)CC2)cc1OC [SA4503, 1-(3,4-dimethoxyphenethyl)-4-(3-phenylpropyl) piperazine] |  | did not block infection |  |  |  |  |
| O=C(OCCN1CCOCC1)C1(c2ccccc2)CCCCC1 [PRE084, 2-morpholin-4-ylethyl 1-phenylcyclohexane-1-carboxylate] |  | did not block infection |  |  |  |  |
| N=C(NCCCOc1ccc(F)cc1)Nc1ccc(Cl)cc1 [CT189] | 1,000 fold | inhibit SARS-CoV-2 infection | inhibition | inhibit | inhibit | inhibit |
| Cc1cc(OCCN2CCOCC2)nn1-c1ccc2ccccc2c1 [Compound S1RA, 4-[2-[[5-methyl-1-(2-naphthalenyl)-1H-pyrazol-3-yl]oxy]ethyl]morpholine] |  | did not block infection; also recorded: does not block infection |  |  |  |  |
| O=C(CCCN1CCC(O)(c2ccc(Cl)cc2)CC1)c1ccc(F)cc1 [Haloperidol, 4-[4-(4-chlorophenyl)-4-hydroxypiperidin-1-yl]-1-(4-fluorophenyl)butan-1-one] |  | clear but modest antiviral effect |  |  |  |  |
